We go through eight molecules from PMC6608569 (Bioorganic & medicinal chemistry letters, 2019).

For assay [1], the target named is GRP78 (Homo sapiens, UniProt P11021). As to the kind of experiment: Fluorescence polarization FITC-NRLLLTG peptide. To be noted: peptide binding assay, 8-point dose responses. Background: In fluorescence polarisation assays a small probe gives low polarisation when free and higher when bound to something large.
The test system of assay [2] is HCT116 cells. Kind of assay: Unfolded protein response markers by immunoblot. Type of assay: cell-based. To be noted: 16 hours, three concentrations. (In western blotting, separated proteins are transferred to a membrane and probed.)
Assay [3] concerns HCT116 cells. As to the kind of experiment: Annexin V / propidium iodide flow cytometry. Type of assay: cell-based. On the technique in general: In flow cytometry, cells or beads pass a laser one at a time.

Structures are written as SMILES.

Sequence of GRP78 (P11021 26-636): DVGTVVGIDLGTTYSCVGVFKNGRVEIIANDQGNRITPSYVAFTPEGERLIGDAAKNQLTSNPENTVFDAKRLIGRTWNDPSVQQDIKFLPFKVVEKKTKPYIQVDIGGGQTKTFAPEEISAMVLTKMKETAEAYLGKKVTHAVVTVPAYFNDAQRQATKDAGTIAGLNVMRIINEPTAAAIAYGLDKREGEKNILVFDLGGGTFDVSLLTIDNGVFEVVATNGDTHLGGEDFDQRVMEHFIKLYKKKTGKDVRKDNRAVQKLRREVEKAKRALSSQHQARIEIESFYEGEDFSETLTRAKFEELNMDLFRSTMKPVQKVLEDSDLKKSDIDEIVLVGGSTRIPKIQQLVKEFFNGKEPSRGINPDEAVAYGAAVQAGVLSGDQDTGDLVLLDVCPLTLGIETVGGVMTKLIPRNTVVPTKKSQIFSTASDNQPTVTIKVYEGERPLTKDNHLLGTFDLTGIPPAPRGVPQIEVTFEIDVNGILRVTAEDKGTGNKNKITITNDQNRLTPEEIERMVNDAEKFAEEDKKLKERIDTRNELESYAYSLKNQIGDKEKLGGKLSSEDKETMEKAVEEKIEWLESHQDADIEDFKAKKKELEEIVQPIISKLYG

As to `Oc1cc(Cl)ccc1Oc1ccc(Cl)cc1Cl` [compound 6], the “GRP78 inhibition, SAR result in words” value in assay [1] is “not tolerated”.

In the case of `Cc1cc(Cc2cc(C)cc(C(C)(C)C)c2O)c(O)c(C(C)(C)C)c1` [compound 10], the “GRP78 inhibition, SAR result in words” value in assay [1] is given as “not tolerated”.

`CCc1cc(Cc2cc(CC)cc(C(C)(C)C)c2O)c(O)c(C(C)(C)C)c1` [compound 8]: the “GRP78 inhibition, SAR result in words” value in assay [1] is “not tolerated”.

`Oc1c(Cl)cc(Cl)c(Cl)c1Cc1c(O)c(Cl)cc(Cl)c1Cl` [hexachlorophene]: the “induction of UPR markers (XBP1s, ATF4, CHOP)” value in assay [2] is given as “dose dependent induction”. Also, in assay [3] (10 μM, 24 hours), the “percentage of apoptotic cells (annexin V staining only) versus Taxol control” value is reported as “same percentage of apoptotic cells”. Further, the “percentage of apoptotic cells versus Taxol control” value in assay [3] (25 μM, 24 hours) was “larger percentage of apoptotic cells than the Taxol control”. For the same molecule, in assay [3] (5, 10, or 25 μM, dose and time course), the “mechanism of cell death” value was “apoptotic cell death in a dose (Figure 6A) and time (Figure 6B) dependent manner”. Further, in assay [3] (time course), the “time of peak early apoptosis (annexin V positive and PI negative)” value was “about 24 hours”; the “time of peak late stage apoptosis (Annexin V and PI positive)” value worked out at 36 h.

As for `Oc1ccccc1Cc1ccccc1O` [compound 7], the “GRP78 inhibition, SAR result in words” value in assay [1] was “inactive”.

Consider `O=C(Nc1cc(Cl)cc(Cl)c1O)c1c(O)c(Cl)cc(Cl)c1Cl` [compound 9], for which, in assay [1], the “GRP78 inhibition, SAR result in words” value is listed as “not tolerated”.

For the molecule `Oc1c(Cl)cc(Cl)c(Cl)c1Sc1c(O)c(Cl)cc(Cl)c1Cl` [compound 2], the “GRP78 inhibition, SAR result in words” value in assay [1] is listed as “tolerated”.

As to `Oc1ccc(Cl)cc1Cc1cc(Cl)ccc1O` [compound 5], the “GRP78 inhibition, SAR result in words” value in assay [1] was “inactive”.
